According to patent publication US20030187261A1, “Purine derivatives, process for their preparation and use thereof” (priority 2000, published 2003):

What was measured:
KG1 cells = assay: apoptosis and cell cycle in KG1 cells (fluorescence microscopy, TUNEL); type: cell-based, human; settings: for speed of apoptosis induction (microscopic examination): KG1, 6-72 hours of exposure, FIG. 4; for apoptotic cells in G0-G1 phase versus control cells: KG1, TUNEL with EB, FIG. 6
Protocol: Nuclear morphology of the cells was analysed with the fluorochromes Hoechst 33342 (λEx max 346 nm; λEm max 460 nm) (Sigma) prepared in phosphate-buffered saline (PBS at 0.1 mg/ml, added to the culture medium at a final concentration of 2 μg/ml and ethidium bromide (EB) (λEx max 540 nm; λEm max 625 nm) (Sigma) prepared in PBS at 100 μg/ml and added to the culture medium at a final concentration of 2 μg/ml (Lizard, 1995). Hundred cells were counted for each sample and percentage of apoptosis was determined.
Control and novel compound-treated cell cultures were washed with PBS and fixed in […] (pH 7.4) for 15 minutes on ice. After washing in PBS, cells were permeabilized in 70% cold (−20° C.) ethanol and transferred to 4° C. for at least 1 hour. After rehydratation in PBS, cells were labeled with 50 μl/well TUNEL reaction mixture (Boehringer Mannheim). Cells were incubated in this solution at 37° C. for 40 minutes, washed in PBS and resuspended in 500 μl PBS containing 5 μg/ml EB and 0.1% RNAse. After 30 minutes of incubation at 4° C., green (FITC-dUTP) and red (EB-DNA) fluorescence of individual cells was measured on a FACscan flow cytometer (Gorczyca, 1993). Negative control (fixed and permeabilized cells incubated with 50 μl label solution per well without terminal transferase, instead of TUNEL reaction mixture) and positive control (fixed and permeabilized cells incubated with DNase I (100 μg/ml) that induces DNA strand breaks) were included in each experimental set-up.
Flow cytometric detection of apoptosis combined with DNA staining can identify apoptotic cells and simultaneously evaluate their position in the cell cycle. This technique was used to provide infomation about the possible cell cycle specific initiation of apoptosis by the tested compounds. If more than 2% of apoptotic cells were detected by the TUNEL method and the absolute number of acquired apoptotic events exceeded 2000, DNA content was simultaneously measured. Within the apoptotic population, analysis and calculation of the different cell cycle phases was carried out by an iterative curve fitting procedure (ModFit LT cell cycle analysis sofware from Verity software house, INC).
Viable, apoptotic, necrotic (=primary necrosis, not following apoptosis) and secondarily necrotic cells (=late apoptotis, evolving to necrosis) were scored differentially after 6, 12, 24, 48 and 72 hours of exposure to novel compounds. For the three products a different apoptosis-inducing pattern could be observed. Apoptosis induction occurs fast after incubation with P23 and P28 but slower after incubation with P27.
Flow cytometric detection of apoptosis and cell cycle analysis: The induction of apoptotic death of KG1 cells by the novel compounds was confirmed using the TUNEL reaction technique (FIG. 5). […] Incubation of KG1 cell line with P27 results in detectable apoptosis after 24 hours. Percentage of apoptotic cells in G0-G1 increases with time, while the number of apoptotic cells in S+G2/M phases decreases. […] After 6 and 12 hours of incubation the apoptotic population seems mainly to evolve from S phase.

B16 melanoma = assay: MTT cytotoxicity assay, B16; type: cell-based, mouse; settings: Mus musculus, B16, 72 hours (TCS50 in the method)
Procedure, shortened: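 Cells pre-incubated 24 h, then exposed to six 4-fold dilutions (top well concentration typically 266.7 μM) in duplicate for 72 h at 37 °C, 5% CO2. MTT read-out, SDS-solubilized formazan measured at 540 nm. TCS50, the concentration lethal to 50% of tumour cells, derived from dose-response curves.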

Row | Compound | time of incubation after which apoptosis was detected (TUNEL) (KG1 cells; KG1) [h] | speed of apoptosis induction (microscopic examination) (KG1 cells) | apoptotic cells in G0-G1 phase versus control cells (KG1 cells) | IC50 (B16 melanoma) [µM]
1 | 2-(3-aminoethylamino)-6-(3,3-dihydroxybenzyl)amino-9-isopropylpurine [P28] | 6 | fast | increase with time after 24 hours | –
2 | CCCCCCNc1nc(NC(CO)c2ccccc2)c2ncn(C(C)C)c2n1 (stereo not drawn) [P23, 2-(hexylamino)-6-(1-phenyl-2-hydroxyethylamino)-9-isopropylpurine] | – | fast | no significant differences were detected | 36.8
